PMC6150173, “Tryptophan-Containing Cyclic Decapeptides with Activity against Plant Pathogenic Bacteria” (Molecules : A Journal of Synthetic Chemistry and Natural …, 2017)
Peptide text beside a SMILES is read from it.

What was measured:
Assay type in all cases: cell-based
[1] = test system: erythrocyte suspensions of human blood; experiment: Hemolytic activity, hemoglobin release; conditions: human blood erythrocytes 5% v/v, absorbance 540 nm, percentage compared to melittin, three replicates; for Hemolysis (%) at 50 µM: peptide 50 μM (table prints 50 µM); for Hemolysis (%) at 125 µM: peptide 125 μM (table prints 125 µM)
Procedure: The hemolytic activity of the compounds was evaluated at 50 and 125 μM by determining hemoglobin release from erythrocyte suspensions of human blood (5% v/v) (Oxoid) using absorbance at 540 nm, as previously described. Three replicates for each peptide concentration were used.

[2] = test system: Pseudomonas syringae pv. syringae EPS94; experiment: Antibacterial activity (MIC), in vitro growth inhibition; conditions: Table S1, MIC range
Procedure: (§1) Erwinia amylovora PMV6076 (Institut National de la Recherche Agronomique, Angers, France), Pseudomonas syringae pv. syringae EPS94 (Institut de Tecnologia Agroalimentària, Universitat de Girona, Spain), and Xanthomonas axonopodis pv. vesicatoria 2133-2 (Instituto Valenciano de Investigaciones Agrarias, Valencia, Spain) were used as bacterial strains. They were stored and cultivated as previously described.
(§2) The minimum inhibitory concentration (MIC) was analyzed as previously described at 0.8, 1.6, 3.1, 6.2, 12.5, 25 and 50 μM [20].

[3] = test system: Xanthomonas axonopodis pv. vesicatoria 2133-2; conditions: Table S1, MIC range
Procedure: as §1, §2

SMILES	Hemolysis (%) at 50 µM [1]	Hemolysis (%) at 125 µM [1]	MIC Pss [2]	MIC Xav [3]
CC(C)C[C@@H]1NC(=O)[C@H](CCCCN)NC(=O)[C@H](Cc2c[nH]c3ccccc23)NC(=O)[C@H](CCCCN)NC(=O)[C@H](CC(C)C)NC(=O)[C@H](CCCCN)NC(=O)[C@H](CC(C)C)NC(=O)[C@H](CCCCN)NC(=O)[C@H](CCC(N)=O)NC(=O)[C@H](CCCCN)NC1=O [BPC016W, c(KLKLKWKLKQ)] (cyclo(KLKLKWKLKQ))	25%	32%	12.5 to 25 µM	3.1 to 6.2 µM
CC(C)C[C@@H]1NC(=O)[C@H](Cc2c[nH]c3ccccc23)NC(=O)[C@H](CCCCN)NC(=O)[C@H](CCCCN)NC(=O)[C@H](CCCCN)NC(=O)[C@H](CCCCN)NC(=O)[C@H](CCCCN)NC(=O)[C@H](CCC(N)=O)NC(=O)[C@H](CC(C)C)NC(=O)[C@H](CC(C)C)NC1=O [BPC058W, c(KKKKKWLLLQ)] (cyclo(KKKKKWLLLQ))	2%	3%	12.5 to 25 µM	25 to 50 µM
CC(C)C[C@@H]1NC(=O)[C@H](CCC(N)=O)NC(=O)[C@H](CC(C)C)NC(=O)[C@H](CCCCN)NC(=O)[C@H](CCCCN)NC(=O)[C@H](Cc2c[nH]c3ccccc23)NC(=O)[C@H](CCCCN)NC(=O)[C@H](CC(C)C)NC(=O)[C@H](CCCCN)NC(=O)[C@H](CCCCN)NC1=O [BPC092W, c(LKKLKWKKLQ)] (cyclo(KKLKWKKLQL))	2%	3%	6.2 to 12.5 µM	3.1 to 6.2 µM
CC(C)C[C@@H]1NC(=O)[C@H](CCCCN)NC(=O)[C@H](CCCCN)NC(=O)[C@H](CCCCN)NC(=O)[C@H](CCCCN)NC(=O)[C@H](CCC(N)=O)NC(=O)[C@H](CCCCN)NC(=O)[C@H](CC(C)C)NC(=O)[C@H](CC(C)C)NC(=O)[C@H](Cc2c[nH]c3ccccc23)NC1=O [BPC100W, c(KKKKLWLLKQ)] (cyclo(KKKKLWLLKQ))	19%	27%	12.5 to 25 µM	6.2 to 12.5 µM
CC(C)C[C@@H]1NC(=O)[C@H](CCCCN)NC(=O)[C@H](Cc2c[nH]c3ccccc23)NC(=O)[C@H](CC(C)C)NC(=O)[C@H](CCCCN)NC(=O)[C@H](CC(C)C)NC(=O)[C@H](CCCCN)NC(=O)[C@H](CCCCN)NC(=O)[C@H](CCC(N)=O)NC(=O)[C@H](CCCCN)NC1=O [BPC112W, c(KKLKLWKLKQ)] (cyclo(KKLKLWKLKQ))	3%	4%	3.1 to 6.2 µM	6.2 to 12.5 µM
CC(C)C[C@@H]1NC(=O)[C@H](CCCCN)NC(=O)[C@H](Cc2c[nH]c3ccccc23)NC(=O)[C@H](CCCCN)NC(=O)[C@H](CCCCN)NC(=O)[C@H](CC(C)C)NC(=O)[C@H](CCCCN)NC(=O)[C@H](CC(C)C)NC(=O)[C@H](CCC(N)=O)NC(=O)[C@H](CCCCN)NC1=O [BPC124W, c(LKLKKWKLKQ)] (cyclo(KKWKLKQLKL))	2%	2%	6.2 to 12.5 µM	3.1 to 6.2 µM
CC(C)C[C@@H]1NC(=O)[C@H](CCCCN)NC(=O)[C@H](CCCCN)NC(=O)[C@H](CCC(N)=O)NC(=O)[C@H](CCCCN)NC(=O)[C@H](CCCCN)NC(=O)[C@H](CCCCN)NC(=O)[C@H](Cc2c[nH]c3ccccc23)NC(=O)[C@H](CC(C)C)NC(=O)[C@H](CC(C)C)NC1=O [BPC148W, c(KKLLLWKKKQ)] (cyclo(KKKQKKLLLW))	1%	2%	12.5 to 25 µM	12.5 to 25 µM
CC(C)C[C@@H]1NC(=O)[C@H](CCCCN)NC(=O)[C@H](CCC(N)=O)NC(=O)[C@H](CCCCN)NC(=O)[C@H](CCCCN)NC(=O)[C@H](CCCCN)NC(=O)[C@H](Cc2c[nH]c3ccccc23)NC(=O)[C@H](CC(C)C)NC(=O)[C@H](CC(C)C)NC(=O)[C@H](CCCCN)NC1=O [BPC150W, c(KLKLLWKKKQ)] (cyclo(KKKQKLKLLW))	17%	32%	12.5 to 25 µM	6.2 to 12.5 µM
CC(C)C[C@@H]1NC(=O)[C@H](CCC(N)=O)NC(=O)[C@H](CCCCN)NC(=O)[C@H](CCCCN)NC(=O)[C@H](CCCCN)NC(=O)[C@H](Cc2c[nH]c3ccccc23)NC(=O)[C@H](CC(C)C)NC(=O)[C@H](CC(C)C)NC(=O)[C@H](CCCCN)NC(=O)[C@H](CCCCN)NC1=O [BPC152W, c(LKKLLWKKKQ)] (cyclo(KKKQLKKLLW))	1%	3%	6.2 to 12.5 µM	6.2 to 12.5 µM
CC(C)C[C@@H]1NC(=O)[C@H](CCC(N)=O)NC(=O)[C@H](CCCCN)NC(=O)[C@H](CCCCN)NC(=O)[C@H](CCCCN)NC(=O)[C@H](Cc2c[nH]c3ccccc23)NC(=O)[C@H](CC(C)C)NC(=O)[C@H](CCCCN)NC(=O)[C@H](CC(C)C)NC(=O)[C@H](CCCCN)NC1=O [BPC156W, c(LKLKLWKKKQ)] (cyclo(KKKQLKLKLW))	1%	2%	6.2 to 12.5 µM	3.1 to 6.2 µM
CC(C)C[C@@H]1NC(=O)[C@H](CCCCN)NC(=O)[C@H](CCC(N)=O)NC(=O)[C@H](CCCCN)NC(=O)[C@H](CCCCN)NC(=O)[C@H](CCCCN)NC(=O)[C@H](Cc2c[nH]c3ccccc23)NC(=O)[C@H](CCCCN)NC(=O)[C@H](CC(C)C)NC(=O)[C@H](CC(C)C)NC1=O [BPC160W, c(KLLLKWKKKQ)] (cyclo(KKKQKLLLKW))	3%	6%	6.2 to 12.5 µM	6.2 to 12.5 µM
CC(C)C[C@@H]1NC(=O)[C@H](CCC(N)=O)NC(=O)[C@H](CCCCN)NC(=O)[C@H](CCCCN)NC(=O)[C@H](CCCCN)NC(=O)[C@H](Cc2c[nH]c3ccccc23)NC(=O)[C@H](CCCCN)NC(=O)[C@H](CC(C)C)NC(=O)[C@H](CC(C)C)NC(=O)[C@H](CCCCN)NC1=O [BPC162W, c(LKLLKWKKKQ)] (cyclo(KKKQLKLLKW))	57%	56%	6.2 to 12.5 µM	3.1 to 6.2 µM
CC(C)C[C@@H]1NC(=O)[C@H](CCCCN)NC(=O)[C@H](CC(C)C)NC(=O)[C@H](CC(C)C)NC(=O)[C@H](CCC(N)=O)NC(=O)[C@H](CCCCN)NC(=O)[C@H](CCCCN)NC(=O)[C@H](CCCCN)NC(=O)[C@H](Cc2c[nH]c3ccccc23)NC(=O)[C@H](CCCCN)NC1=O [BPC164W, c(LLKLKWKKKQ)] (cyclo(KKKQLLKLKW))	6%	6%	6.2 to 12.5 µM	6.2 to 12.5 µM
CC(C)C[C@@H]1NC(=O)[C@H](CCC(N)=O)NC(=O)[C@H](CCCCN)NC(=O)[C@H](CCCCN)NC(=O)[C@H](CCCCN)NC(=O)[C@H](Cc2c[nH]c3ccccc23)NC(=O)[C@H](CCCCN)NC(=O)[C@H](CCCCN)NC(=O)[C@H](CC(C)C)NC(=O)[C@H](CC(C)C)NC1=O [BPC166W, c(LLLKKWKKKQ)] (cyclo(KKKQLLLKKW))	1%	1%	6.2 to 12.5 µM	6.2 to 12.5 µM
CC(C)C[C@@H]1NC(=O)[C@H](CCCCN)NC(=O)[C@H](CCCCN)NC(=O)[C@H](Cc2c[nH]c3ccccc23)NC(=O)[C@H](CCCCN)NC(=O)[C@H](CC(C)C)NC(=O)[C@H](CCCCN)NC(=O)[C@H](CCCCN)NC(=O)[C@H](CCCCN)NC(=O)[C@H](CCC(N)=O)NC1=O [BPC186W, c(KKKLKWKKLQ)] (cyclo(KKKLKWKKLQ))	1%	1%	12.5 to 25 µM	6.2 to 12.5 µM
CC(C)C[C@@H]1NC(=O)[C@H](CCCCN)NC(=O)[C@H](CCCCN)NC(=O)[C@H](Cc2c[nH]c3ccccc23)NC(=O)[C@H](CCCCN)NC(=O)[C@H](CCCCN)NC(=O)[C@H](CC(C)C)NC(=O)[C@H](CC(C)C)NC(=O)[C@H](CC(C)C)NC(=O)[C@H](CCC(N)=O)NC1=O [BPC188W, c(LLLKKWKKLQ)] (cyclo(KKLQLLLKKW))	33%	48%	6.2 to 12.5 µM	12.5 to 25 µM
CC(C)C[C@@H]1NC(=O)[C@H](CCC(N)=O)NC(=O)[C@H](CC(C)C)NC(=O)[C@H](CCCCN)NC(=O)[C@H](CCCCN)NC(=O)[C@H](Cc2c[nH]c3ccccc23)NC(=O)[C@H](CCCCN)NC(=O)[C@H](CCCCN)NC(=O)[C@H](CCCCN)NC(=O)[C@H](CCCCN)NC1=O [BPC190W, c(LKKKKWKKLQ)] (cyclo(KKKKWKKLQL))	1%	3%	25 to 50 µM	12.5 to 25 µM
